For 11 molecules, Activity and IC50 results are on record in ChEMBL document CHEMBL5036360, “Pinguisane Sesquiterpenoids from the Chinese Liverwort Trocholejeunea sandvicensis and Their Anti-Inflammatory Activity” (J Nat Prod, 2022).

pIC50: −log10 of the molar value. The source made the active and inactive calls. The calls are words filed in the database; no cut-off is given here.

For orientation: pIC50 means the IC50 on a negative log10 scale, so that one unit is a factor of ten.

The subject of test [1] is RAW264.7. In words: Antiinflammatory activity in mouse RAW264.7 cells assessed as inhibition of LPS-induced NO production at 100 uM measured after 24 hrs by Griess method. It counts as functional.
Test [2] concerns RAW264.7. In words: Cytotoxicity against mouse RAW264.7 cells […] measured after 24 hrs by MTT assay. Type of test: cell-based. The following applies: RAW264.7, 24 h. (Formazan colour is commonly taken as a measure of viable cells.)
The species named for the next test is Danio rerio. The test is described as follows: Antiinflammatory activity in transgenic fluorescent Zebrafish assessed as reduction in CuSO4 induced number of macrophage migration at 10 to 50 uM measured after 1 hr by fluorescence microscopic analysis. It counts as functional, organism-based. The following applies: dose 10-50 µM.

In the case of `C[C@@H]1CC[C@@]2(C)[C@H](C)[C@]3(C[C@@]12C)C(=O)O[C@H]1O[C@H]13`, in the test on RAW264.7 [1], the outcome was inactive. The molecule further gave a pIC50 in the test with RAW264.7 [2] of less than 4.00.
The matching figures for `C[C@@H]1CC[C@@]2(C)[C@H](C)C3=CC(=O)NC3=C[C@@]12C`: “inactive” and less than 4.00.
On the same counts, the results for `CC1=C(CC(=O)O)C(=O)C[C@@]2(C)[C@H](C)CC[C@@]12C` are “inactive” and less than 4.00.
Consider `C[C@@H]1CC[C@@]2(C)[C@H](C)C3=CC(=O)N[C@@H]3C[C@@]12C`, for which, in the test with RAW264.7 [1], the outcome was inactive. In addition, the pIC50 in the test on RAW264.7 [2] was less than 4.00.
As for `CCO[C@@]12C[C@@]3(C)[C@H](C)CC[C@@]3(C)[C@H](C)C1=CC(=O)O2`, the Activity in the test with RAW264.7 [1] worked out at 83.54%. Moreover, the result in the test filed under Danio rerio was Active. The molecule also showed a pIC50 with RAW264.7 [2] of less than 4.00.
Regarding `CCOC(=O)/C=C1\C(=O)C[C@@]2(C)[C@H](C)CC[C@@]2(C)[C@@H]1C`, the outcome in the test with RAW264.7 [1] was inactive. Moreover, the pIC50 in the test with RAW264.7 [2] is less than 4.00.
On the same counts, the results for `CO[C@@]12C[C@@]3(C)[C@H](C)CC[C@@]3(C)[C@H](C)C1=CC(=O)O2` are “inactive” and less than 4.00.
On the same counts, the results for `CCOC(=O)C1=C(C)[C@]2(C)CC[C@@H](C)[C@]2(C)CC1=O` are “inactive” and less than 4.00.
As for `C=C1[C@@]2(CC=O)O[C@H](OC2=O)[C@@]2(C)[C@H](C)CC[C@@]12C`, the Activity in the test on RAW264.7 [1] is 83.15%. In the test filed under Danio rerio, the outcome was inactive. For the same molecule, the pIC50 in the test with RAW264.7 [2] is less than 4.00.
Regarding `C[C@@H]1CC[C@@]2(C)[C@H](C)C3=CC(=O)O[C@]3(O)C[C@@]12C`, the Activity in the test on RAW264.7 [1] came out at 96.28%. Also, the result in the test listed under Danio rerio was inactive. For the same molecule, the pIC50 in the test on RAW264.7 [2] is less than 4.00.
In the case of `C=C1[C@]2(C)CC[C@@H](C)[C@]2(C)C[C@@]2(O)O[C@@H](OCC)[C@H](O)[C@@]12OCC`, the result with RAW264.7 [1] was inactive. In the test on RAW264.7 [2], this molecule had a pIC50 of less than 4.00.
